Test results reported in patent US20260042764A1, “COMPOSITIONS AND METHODS FOR INHIBITION OF KRAS” (TheRas, Inc., priority 2022, published 2026).

How the values were obtained:
[1] = system: GP2d cells (KRAS G12D); assay: Cell-based pERK HTRF assay in GP2d cell (Biological Example 2); settings: GP2d (KRAS G12D) cells, pERK HTRF
Procedure, shortened: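 GP2d (KRAS G12D) cells were plated in DMEM/10% FBS and treated the next day for 60 min with compounds. Dosing used 9-point half-log series starting at 1 μM or 100 nM in 0.25% DMSO. Lysates were read by HTRF pERK (d2/Eu cryptate antibodies) after 4–24 h at room temperature, with excitation at 320 nm and emission at 615 nm.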

[2] = target: T1, Avi-KRAS G12D (1-169) GppNHp/RAF1 RBD-3xFLAG (52-151) (Homo sapiens, UniProt P01116, G12D); assay: Raf1-KRAS G12D-GppNHP disruption HTRF assay (Biological Example 1); assay type: binding; settings: KRAS G12D, GppNHp-loaded; Table 11
T1 construct: Avi-KRAS G12D (1-169)
T1 sequence (P01116 1-169 isoform P01116-2 G12D): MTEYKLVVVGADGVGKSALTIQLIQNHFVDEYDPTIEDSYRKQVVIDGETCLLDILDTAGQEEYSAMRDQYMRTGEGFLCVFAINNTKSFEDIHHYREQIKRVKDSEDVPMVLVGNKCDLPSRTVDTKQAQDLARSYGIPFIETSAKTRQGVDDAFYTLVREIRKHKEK
Procedure, shortened: (§1)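 Protein mix, 1 h RT, 700 rpm; reagent mix, 1 h RT, 700 rpm; HTRF read. Buffer Tris pH 7.5/NaCl/MgCl2/BSA/Tween, 10% DMSO. Output % activity, DMSO = 100%.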

[3] = target: T2, Avi-KRAS WT (1-169) GppNHp/RAF1 RBD-3xFLAG (52-151) (Homo sapiens, UniProt P01116); assay: Raf1-KRAS WT-GppNHP disruption HTRF assay (Biological Example 1); assay type: binding; settings: KRAS WT, GppNHp-loaded; Table 11
T2 construct: Avi-KRAS WT (1-169)
T2 sequence (P01116 1-169 isoform P01116-2): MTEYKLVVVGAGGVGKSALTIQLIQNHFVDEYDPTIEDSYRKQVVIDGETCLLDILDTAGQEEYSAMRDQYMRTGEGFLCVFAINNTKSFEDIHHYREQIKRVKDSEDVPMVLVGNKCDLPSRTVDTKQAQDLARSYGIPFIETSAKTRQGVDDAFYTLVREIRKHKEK
Procedure, shortened: as §1

[4] = target: T3, Avi-KRAS G12R (1-169) GppNHp/RAF1 RBD-3xFLAG (52-151) (Homo sapiens, UniProt P01116, G12R); assay: Raf1-KRAS G12R-GppNHP disruption HTRF assay (Biological Example 1); assay type: binding; settings: KRAS G12R, GppNHp-loaded; Table 11
T3 construct: Avi-KRAS G12R (1-169)
T3 sequence (P01116 1-169 isoform P01116-2 G12R): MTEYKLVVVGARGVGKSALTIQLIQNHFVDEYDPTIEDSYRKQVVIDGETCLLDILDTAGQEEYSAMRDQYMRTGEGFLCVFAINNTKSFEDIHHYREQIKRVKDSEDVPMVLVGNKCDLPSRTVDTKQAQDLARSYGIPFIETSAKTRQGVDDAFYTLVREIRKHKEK
Procedure, shortened: as §1

[5] = target: T4, Avi-KRAS G12V (1-169) GppNHp/RAF1 RBD-3xFLAG (52-151) (Homo sapiens, UniProt P01116, G12V); assay: Raf1-KRAS G12V-GppNHP disruption HTRF assay (Biological Example 1); assay type: binding; settings: KRAS G12V, GppNHp-loaded; Table 11
T4 construct: Avi-KRAS G12V (1-169)
T4 sequence (P01116 1-169 isoform P01116-2 G12V): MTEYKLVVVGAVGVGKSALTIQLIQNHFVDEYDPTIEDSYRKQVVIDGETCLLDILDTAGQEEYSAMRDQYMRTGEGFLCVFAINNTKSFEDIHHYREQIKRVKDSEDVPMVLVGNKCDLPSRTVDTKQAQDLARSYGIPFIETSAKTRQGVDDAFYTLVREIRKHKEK
Procedure, shortened: as §1

IC50 ([1]; GP2d) [nM]	IC50 [2] [nM]	IC50 [3] [nM]	IC50 [4] [nM]	IC50 [5] [nM]	IC50 [1] [nM]	SMILES
< 100	100 to 1000	100 to 1000	100 to 1000	100 to 1000		N#Cc1c(N)sc2c(F)ccc(-c3c(C(F)(F)F)cc4c(N5CCCC5)nc(OC[C@@]56CCCN5C[C@H](F)C6)nc4c3F)c12 [Compound 156]
	> 10000	> 10000	> 10000	> 10000	> 1000	CC(=O)N1CCC(N(C)c2nc(OCC34CCCN3CC(F)C4)nc3c(F)c(-c4ccc(F)c5scc(C#N)c45)c(C(F)(F)F)cc23)C1 (stereo not shown) [Compound 105]
< 100	100 to 1000	100 to 1000	100 to 1000	100 to 1000		CN(c1nc(OC[C@@]23CCCN2C[C@H](F)C3)nc2c(F)c(-c3ccc(F)c4sc(N)c(C#N)c34)c(C(F)(F)F)cc12)[C@@H]1C[C@H](O)[C@H]1CC#N [Compound 182]
< 100	100 to 1000	100 to 1000	1000 to 10000	1000 to 10000		N#Cc1c(N)sc2c(F)ccc(-c3c(C(F)(F)F)cc4c(N5CC6(COC6)C5)nc(OC[C@@]56CCCN5C[C@H](F)C6)nc4c3F)c12 [Compound 149]
< 100	100 to 1000	100 to 1000	100 to 1000	100 to 1000		CN(c1nc(OC[C@@]23CCCN2C[C@H](F)C3)nc2c(F)c(-c3ccc(F)c4sc(N)c(C#N)c34)c(C(F)(F)F)cc12)C1(CO)CC1 [Compound 170]
< 100	100 to 1000	1000 to 10000	100 to 1000	1000 to 10000		CCN(c1nc(OC[C@@]23CCCN2C[C@H](F)C3)nc2c(F)c(-c3ccc(F)c4sc(N)c(C#N)c34)c(C(F)(F)F)cc12)C1CC1 [Compound 155]
100 to 1000	1000 to 10000	1000 to 10000	1000 to 10000	1000 to 10000		CN(c1nc(OC[C@@]23CCCN2C[C@H](F)C3)nc2c(F)c(-c3ccc(F)c4sc(N)c(C#N)c34)c(C(F)(F)F)cc12)[C@H]1C[C@@H](O)C1 (single isomer, unassigned) [Compound 20]
< 100	100 to 1000	100 to 1000	100 to 1000	100 to 1000		CN(c1nc(OC[C@@]23CCCN2C[C@H](F)C3)nc2c(F)c(-c3ccc(F)c4sc(N)c(C#N)c34)c(C(F)(F)F)cc12)[C@@H]1CCN(C(=O)CC#N)C1 (atropisomer, axis not shown) [Compound 103]
< 100	100 to 1000	100 to 1000	100 to 1000	100 to 1000		CN(c1nc(OC[C@@]23CCCN2C[C@H](F)C3)nc2c(F)c(-c3ccc(F)c4sc(N)c(C#N)c34)c(C(F)(F)F)cc12)[C@H]1CCOC1 [Compound 133]
< 100	100 to 1000	100 to 1000	100 to 1000	100 to 1000		N#Cc1c(N)sc2c(F)ccc(-c3c(C(F)(F)F)cc4c(N5CCC(F)CC5)nc(OC[C@@]56CCCN5C[C@H](F)C6)nc4c3F)c12 [Compound 151]
< 100	100 to 1000	100 to 1000	100 to 1000	1000 to 10000		C[C@@H]1CN(c2nc(OC[C@@]34CCCN3C[C@H](F)C4)nc3c(F)c(-c4ccc(F)c5sc(N)c(C#N)c45)c(C(F)(F)F)cc23)CCO1 [Compound 141]
< 100	100 to 1000	100 to 1000	100 to 1000	1000 to 10000		N#Cc1c(N)sc2c(F)ccc(-c3c(C(F)(F)F)cc4c(N5CC6CCC(C5)O6)nc(OC[C@@]56CCCN5C[C@H](F)C6)nc4c3F)c12 [Compound 130]
< 100	100 to 1000	100 to 1000	100 to 1000	1000 to 10000		N#Cc1c(N)sc2c(F)ccc(-c3c(C(F)(F)F)cc4c(N5CCN(C(=O)CO)CC5)nc(OC[C@@]56CCCN5C[C@H](F)C6)nc4c3F)c12 [Compound 101]
100 to 1000	100 to 1000	100 to 1000	1000 to 10000	1000 to 10000		CN(c1nc(OC[C@@]23CCCN2C[C@H](F)C3)nc2c(F)c(-c3ccc(F)c4sc(N)c(C#N)c34)ccc12)[C@H]1C[C@@H](O)C1 [Compound 28]
< 100	< 100	< 100	< 100	< 100		CCN(CCO)c1nc(OC[C@@]23CCCN2C[C@H](F)C3)nc2c(F)c(-c3ccc(F)c4sc(N)c(C#N)c34)c(C(F)(F)F)cc12 [Compound 74]
< 100	100 to 1000	100 to 1000	100 to 1000	100 to 1000		N#Cc1c(N)sc2c(F)ccc(-c3c(C(F)(F)F)cc4c(N5CC[C@@H](O)C5)nc(OC[C@@]56CCCN5C[C@H](F)C6)nc4c3F)c12 [Compound 126]
< 100	100 to 1000	100 to 1000	100 to 1000	1000 to 10000		C[C@@H]1COCCN1c1nc(OC[C@@]23CCCN2C[C@H](F)C3)nc2c(F)c(-c3ccc(F)c4sc(N)c(C#N)c34)c(C(F)(F)F)cc12 [Compound 134]
< 100	100 to 1000	100 to 1000	100 to 1000	100 to 1000		CC1(CO)CCN(c2nc(OCC34CCCN3CC(F)C4)nc3c(F)c(-c4ccc(F)c5sc(N)c(C#N)c45)c(C(F)(F)F)cc23)CC1 (stereo not shown) [Compound 48]
< 100	< 100	100 to 1000	100 to 1000	100 to 1000		C[C@@H](O)CN(C)c1nc(OC[C@@]23CCCN2C[C@H](F)C3)nc2c(F)c(-c3ccc(F)c4sc(N)c(C#N)c34)c(C(F)(F)F)cc12 [Compound 71]
< 100	< 100	100 to 1000	100 to 1000	100 to 1000		CN(CCO)c1nc(OC[C@@]23CCCN2C[C@H](F)C3)nc2c(F)c(-c3ccc(F)c4sc(N)c(C#N)c34)c(C(F)(F)F)cc12 [Compound 70, 2-amino-7-fluoro-4-(8-fluoro-2-(((2R,7aS)-2-fluorotetrahydro-1H-pyrrolizin-7a(5H)-yl)methoxy)-4-((2-hydroxyethyl)(methyl)amino)-6-(trifluoromethyl)quinazolin-7-yl)benzo[b]thiophene-3-carbonitrile]
< 100	100 to 1000	100 to 1000	100 to 1000	100 to 1000		N#Cc1c(N)sc2c(F)ccc(-c3c(C(F)(F)F)cc4c(N5CC[C@H](O)C5)nc(OC[C@@]56CCCN5C[C@H](F)C6)nc4c3F)c12 [Compound 125]
< 100	< 100	100 to 1000	100 to 1000	100 to 1000		CN(C[C@H](O)CO)c1nc(OC[C@@]23CCCN2C[C@H](F)C3)nc2c(F)c(-c3ccc(F)c4sc(N)c(C#N)c34)c(C(F)(F)F)cc12 [Compound 79]
< 100	100 to 1000	100 to 1000	100 to 1000	1000 to 10000		N#CC[C@H]1CN(c2nc(OC[C@@]34CCCN3C[C@H](F)C4)nc3c(F)c(-c4ccc(F)c5sc(N)c(C#N)c45)c(C(F)(F)F)cc23)CCO1 [Compound 137]
< 100	100 to 1000	100 to 1000	100 to 1000	100 to 1000		CN(c1nc(OC[C@@]23CCCN2C[C@H](F)C3)nc2c(F)c(-c3ccc(F)c4sc(N)c(C#N)c34)c(C(F)(F)F)cc12)[C@@H]1CCS(=O)(=O)C1 [Compound 93]
< 100	100 to 1000	100 to 1000	100 to 1000	100 to 1000		CCN(CCO)c1nc(OC[C@@H]2CCCN2C)nc2c(F)c(-c3ccc(F)c4sc(N)c(C#N)c34)c(C(F)(F)F)cc12 [Compound 179]
100 to 1000	1000 to 10000	1000 to 10000	1000 to 10000	1000 to 10000		CC(=O)N1CCN(c2nc(OC[C@@]34CCCN3C[C@H](F)C4)nc3c(F)c(-c4ccc(F)c5sc(N)c(C#N)c45)c(C(F)(F)F)cc23)C[C@@H]1CC#N [Compound 183]
	100 to 1000	1000 to 10000	100 to 1000	1000 to 10000	< 100	CCN(CCO)c1nc(OC[C@@H]2C[C@@H](OC)CN2C)nc2c(F)c(-c3ccc(F)c4sc(N)c(C#N)c34)c(C(F)(F)F)cc12 [Compound 178]
100 to 1000	100 to 1000	100 to 1000	100 to 1000	100 to 1000		CC(=O)NC1CN(c2nc(OC[C@@]34CCCN3C[C@H](F)C4)nc3c(F)c(-c4ccc(F)c5sc(N)c(C#N)c45)c(C(F)(F)F)cc23)C1 [Compound 88]
100 to 1000	100 to 1000	100 to 1000	100 to 1000	100 to 1000		N#Cc1c(N)sc2c(F)ccc(-c3c(C(F)(F)F)cc4c(N5CC[C@@H](CO)C5)nc(OC[C@@]56CCCN5C[C@H](F)C6)nc4c3F)c12 [Compound 124]
